Patent publication US10782295B2, “Cysteine-reactive ligand discovery in proteomes” (THE SCRIPPS RESEARCH INSTITUTE, priority 2013, dated 2020)

Columns and labels:
Assay in all cases: competitive isoTOP-ABPP, MDA-MB-231 soluble proteome
Assay type in all cases: binding
[1] = biological target: T1, CHRAC1 (Homo sapiens, UniProt Q9NRG0); details: 100 μM LDE, 60 min; peptide ATELFVQC*LATYSYR
T1 construct: directly in native proteomes; endogenous in cells; host or cells: MDA-MB-231
T1 sequence (Q9NRG0 1-131): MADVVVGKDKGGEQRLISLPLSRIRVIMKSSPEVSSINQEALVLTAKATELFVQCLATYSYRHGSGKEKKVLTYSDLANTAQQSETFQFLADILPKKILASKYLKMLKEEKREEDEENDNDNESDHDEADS

[2] = biological target: T2, CKAP4 (Homo sapiens, UniProt Q07065); details: 100 μM LDE, 60 min; peptide SSSSSSASAAAAAAAASSSASC*SR
T2 construct: directly in native proteomes; endogenous in cells; host or cells: MDA-MB-231
T2 sequence (Q07065 1-602): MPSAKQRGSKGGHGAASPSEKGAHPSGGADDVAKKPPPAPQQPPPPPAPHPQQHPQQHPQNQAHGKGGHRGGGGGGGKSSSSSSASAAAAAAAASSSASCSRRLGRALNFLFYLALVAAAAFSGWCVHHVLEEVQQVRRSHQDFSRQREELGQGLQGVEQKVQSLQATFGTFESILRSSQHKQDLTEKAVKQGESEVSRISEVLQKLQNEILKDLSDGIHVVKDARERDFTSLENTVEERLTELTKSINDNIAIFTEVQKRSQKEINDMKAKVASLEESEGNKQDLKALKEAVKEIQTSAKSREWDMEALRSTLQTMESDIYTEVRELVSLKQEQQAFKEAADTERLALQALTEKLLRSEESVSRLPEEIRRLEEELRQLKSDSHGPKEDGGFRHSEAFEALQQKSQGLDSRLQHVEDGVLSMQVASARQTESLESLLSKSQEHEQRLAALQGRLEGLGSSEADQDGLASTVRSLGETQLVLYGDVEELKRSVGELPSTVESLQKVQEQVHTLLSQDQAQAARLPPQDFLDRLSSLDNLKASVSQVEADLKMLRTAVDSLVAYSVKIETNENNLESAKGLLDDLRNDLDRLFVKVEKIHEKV

[3] = biological target: T3, TNRC5 (Homo sapiens, UniProt Q9BT09); details: 100 μM LDE, 60 min; peptide QC*DVLVEEFEEVIEDWYR
T3 construct: directly in native proteomes; endogenous in cells; host or cells: MDA-MB-231
T3 sequence (Q9BT09 31-278): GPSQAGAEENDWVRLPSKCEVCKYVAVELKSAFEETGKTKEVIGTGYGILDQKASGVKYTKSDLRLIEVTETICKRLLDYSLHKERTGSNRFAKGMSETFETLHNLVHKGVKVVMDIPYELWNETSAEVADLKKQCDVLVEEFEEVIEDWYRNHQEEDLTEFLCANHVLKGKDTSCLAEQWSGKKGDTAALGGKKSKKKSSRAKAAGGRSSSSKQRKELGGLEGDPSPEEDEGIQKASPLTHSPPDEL

SMILES	R value (isoTOP-ABPP ratio heavy/light) for IA-labeled cysteine of CHRAC1 [1]	R value (isoTOP-ABPP ratio heavy/light) for IA-labeled cysteine of CKAP4 [2]	R value (isoTOP-ABPP ratio heavy/light) for IA-labeled cysteine of TNRC5 [3]
CCCCCCCCCCCCC/C=C/C=O [2-HD, 2-trans-hexadecenal]	1.06	1.08	1.06
CCCCCC(O)/C=C/C=O (stereo not drawn) [4-HNE, 4-Hydroxynonenal]	1.94	7.73	1.29
CCCCC/C=C/C=C1/C(=O)C=C[C@@H]1C/C=C\CCCC(=O)O [PGJ2, 15-deoxy-Δ12,14-prostaglandin J2]	12.32	3.33	11.77
